Data published in patent US20260374766A1, “METHODS FOR TREATING CANCER” (Antares Therapeutics, Inc., priority 2022, published 2026).

Key:
H1299 p53 R273H = test: Cell Proliferation Assay (CellTiter-Glo, CTG), H1299 p53 R273H (NClH1299-inducible p53 R273H); assay type: cell-based; details: Homo sapiens, NCI-H1299, 120 h, NClH1299-inducible p53 R273H cells, 5 days, CellTiter-Glo
Summary of the method: (§1)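 Cells seeded at 250-500 per well and exposed to compound for 5 days. Viability read by CellTiter-Glo luminescence after 10 min at room temperature; IC50 calculated. H1299 lines carry Tet-One inducible p53 mutant constructs introduced by lentiviral transduction.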

NUGC3 p53 Y220C = test: Cell Proliferation Assay (CellTiter-Glo, CTG), NUGC3 p53 Y220C; assay type: cell-based; details: Homo sapiens, NUGC-3, 120 h, NUGC3 cells, 5 days, CellTiter-Glo
Summary of the method: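 NClH1299 lines stably transduced with Tet-inducible p53 Y220C or R273H, plus NUGC3, were treated with compound for 5 days at 250-500 cells/well. IC50 derived from CellTiter-Glo luminescent signal after 10 min room-temperature incubation.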

H1299 p53 Y220C = test: Cell Proliferation Assay (CellTiter-Glo, CTG), H1299 p53 Y220C (NClH1299-inducible p53 Y220C); assay type: cell-based; details: Homo sapiens, NCI-H1299, 120 h, NClH1299-inducible p53 Y220C cells, 5 days, CellTiter-Glo
Summary of the method: as §1

p53 Y220C = p53 Y220C (Homo sapiens, UniProt P04637, Y220C); test: Luciferase Reporter Assay (Luc), p53 response element, NClH1299 cells with inducible p53 Y220C; assay type: cell-based; details: luciferase reporter, NClH1299 inducible p53 Y220C, 6 hour; for AC50: read-out: Luc P53 Y220C AC50
Summary of the method: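 Doxycycline (0.5 ug/mL, 24 h) induces the mutant before a 6-hour compound treatment. Reporter activity is then quantified by One-Glo luminescence.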

[1] = biological target: T1, p53 Y220C mutant protein (amino acid residues 94-293) (Homo sapiens, UniProt P04637, Y220C); test: Thermal Shift Assay (TSA), dTM; assay type: binding; details: p53 Y220C, read-out: TSA P53 Y220C dTM; for ΔTm at 10 µM: 10 uM compound; for ΔTm at 100 µM: 100 uM compound
T1 construct: p53 Y220C mutant protein (amino acid residues 94-293)
Summary of the method: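 TM is derived by fitting Sypro Orange melt curves (30 °C to 50 °C, 0.03 °C/second) to a Boltzmann two-state model. Beforehand, 5 μM p53 Y220C (94-293) sits with 10 μM or 100 μM compound for 3 hours at 20 °C in HEPES pH7.4 buffer containing 100 mM NaCl and 1% DMSO.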

[2] = biological target: T1, p53 Y220C mutant protein (amino acid residues 94-293); test: Surface Plasmon Resonance (SPR) assay, Kd_kinetic; assay type: binding; details: SPR; p53 Y220C; read-out: SPR P53 Y220C KD kinetic
Summary of the method: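 Binding measured by SPR on a Biacore 8K in running buffer of 50 mM Tris pH 7.5, 100 mM NaCl, 1 mM DTT, 0.01% Brij35, 0.05% Tween-20, 1% DMSO.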

Row | Structure (SMILES) | IC50 (H1299 p53 R273H) [nM] | IC50 (NUGC3 p53 Y220C) [nM] | IC50 (H1299 p53 Y220C) [nM] | AC50 (p53 Y220C) [nM] | Emax (p53 Y220C) [%] | ΔTm at 10 µM [1] [°C] | ΔTm at 100 µM [1] [°C] | Kd [2] [nM]
1 | CNC(=O)c1cnc(OC)c(NCC#Cc2nc3c(N[C@@H]4CCN(C)C[C@@H]4F)cccn3c2CC(F)(F)F)c1 [Example 261] | ≥ 10000 | < 750 | 750 to 1500 | 1500 to 3000 | 70 to 80 | 5 to 10 | ≥ 10 | < 10
2 | CNC(=O)c1cnc(OC)c(NCC#Cc2nc3c(N[C@@H]4C[C@H]5CC[C@H](N5)[C@@H]4F)cccn3c2SC(F)(F)F)c1 [Example 264] | 8000 to 10000 | < 750 | < 750 | < 750 | 70 to 80 | ≥ 10 | ≥ 10 | < 10
3 | CNC(=O)c1cnc(OC)c(NCC#Cc2nn3c(N[C@@H]4CCN(C)C[C@@H]4F)cccc3c2SC(F)F)c1 [Example 268] | < 5000 | < 750 | < 750 | < 750 | > 90 | ≥ 10 | ≥ 10 | < 10
4 | CNC(=O)c1ccc(OC)c(NCC#Cc2nn3c(N[C@@H]4C[C@H]5CC[C@H](N5)[C@@H]4F)cccc3c2SC(F)(F)F)c1 [Example 269] | < 5000 | < 750 | < 750 | < 750 | 70 to 80 | ≥ 10 | 5 to 10 | < 10
5 | CNC(=O)c1cnc(OC)c(NCC#Cc2nn3c(N[C@@H]4CCNC[C@@H]4F)cccc3c2SC(F)(F)F)c1 [Example 270] | < 5000 | < 750 | < 750 | < 750 | 80 to 90 | ≥ 10 | – | < 10
6 | CNC(=O)c1cc(NCC#Cc2nc3c(N[C@@H]4CCN(C)C[C@@H]4F)cccn3c2SC(F)(F)F)c2nccn2c1 [Example 277] | ≥ 10000 | < 750 | < 750 | < 750 | > 90 | ≥ 10 | – | < 10
7 | CNC(=O)c1ccc(NCC#Cc2nc3c(N[C@@H]4C[C@@H]5COC[C@H]([C@@H]4F)N5C)cccn3c2SC(F)(F)F)c(OC)c1 [Example 283] | ≥ 10000 | < 750 | < 750 | < 750 | 80 to 90 | ≥ 10 | – | < 10
8 | CNC(=O)c1ccc(OC)c(NCC#Cc2nn3c(N[C@@H]4C[C@H]5CC[C@@H]([C@@H]4F)N5C)cccc3c2SC(F)(F)F)c1 [Example 284] | < 5000 | < 750 | < 750 | < 750 | 80 to 90 | ≥ 10 | ≥ 10 | < 10
9 | CCNC(=O)c1ccc(OC)c(NCC#Cc2nn3c(N[C@@H]4CCN(C)C[C@@H]4F)cccc3c2SC(F)(F)F)c1 [Example 285] | 5000 to 8000 | < 750 | < 750 | < 750 | 80 to 90 | ≥ 10 | ≥ 10 | < 10
10 | CNC(=O)c1ccc(OC)c(NCC#Cc2nn3c(N[C@H]4C[C@@H]5CC[C@@H](N5)[C@H]4F)cccc3c2SC(F)(F)F)c1 [Example 287] | < 5000 | < 750 | < 750 | < 750 | 80 to 90 | ≥ 10 | – | < 10
11 | CNC(=O)c1ccc(OC)c(NCC#Cc2nn3c(N[C@H]4C[C@@H]5CC[C@H]([C@H]4F)N5C)cccc3c2SC(F)(F)F)c1 [Example 288] | < 5000 | < 750 | < 750 | < 750 | 80 to 90 | ≥ 10 | – | < 10
12 | CNC(=O)c1ccc(OC)c(NCC#Cc2cc3c(N[C@@H]4CCNC[C@@H]4F)nccn3c2SC(F)(F)F)c1 [Example 289] | 5000 to 8000 | < 750 | < 750 | < 750 | > 90 | ≥ 10 | ≥ 10 | < 10
13 | CCNC(=O)c1ccc(OC)c(NCC#Cc2cc3c(N[C@@H]4CCN(C)C[C@@H]4F)nccn3c2SC(F)(F)F)c1 [Example 290] | ≥ 10000 | < 750 | < 750 | < 750 | > 90 | ≥ 10 | – | < 10
14 | CCNC(=O)c1cnc(OC)c(NCC#Cc2cc3c(N[C@@H]4CCN(C)C[C@@H]4F)nccn3c2SC(F)(F)F)c1 [Example 291] | ≥ 10000 | < 750 | < 750 | < 750 | > 90 | ≥ 10 | ≥ 10 | < 10
15 | CNC(=O)c1cnc(OC)c(NCC#Cc2cc3c(N[C@@H]4CCNC[C@@H]4F)nccn3c2SC(F)(F)F)c1 [Example 292] | ≥ 10000 | < 750 | < 750 | < 750 | > 90 | ≥ 10 | – | < 10
16 | CCNC(=O)c1cnc(OC)c(NCC#Cc2nc3c(N[C@@H]4CCN(C)C[C@@H]4F)cccn3c2SC(F)(F)F)c1 [Example 293] | ≥ 10000 | < 750 | < 750 | < 750 | 80 to 90 | ≥ 10 | – | < 10
17 | CNC(=O)c1ccc(C)c(NCC#Cc2cc3c(N[C@@H]4CCN(C)C[C@@H]4F)nccn3c2SC(F)(F)F)c1 [Example 294] | ≥ 10000 | < 750 | < 750 | < 750 | > 90 | ≥ 10 | – | < 10
18 | CNC(=O)c1ccc(NCC#Cc2cc3c(N[C@@H]4CCNC[C@@H]4F)nccn3c2SC(F)(F)F)c(OC)c1 [Example 295] | 8000 to 10000 | < 750 | < 750 | < 750 | > 90 | ≥ 10 | – | < 10
19 | CNC(=O)c1ccc(OC)c(NCC#Cc2nc3c(N[C@@H]4CCN(CCOC)C[C@@H]4F)cccn3c2SC(F)(F)F)c1 [Example 296] | ≥ 10000 | < 750 | < 750 | < 750 | 80 to 90 | ≥ 10 | – | < 10
